Assay results taken from ChEMBL document CHEMBL1201862, “PubChem BioAssay data set” (2004).
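These data come from cells grown in 96-well plates and exposed to compound for 48 hours at five concentrations. The concentration for 50% growth inhibition is given as GI50.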 The source made the active and inactive calls. Rule as the data show it: active = GI50 up to about 1.1 µM and inactive = higher.

Legend:
Assay in all cases: NCI anticancer screen, dose series, 48 h
UACC-257 = system: UACC-257
MDA-N = system: MDA-N
HL-60 = system: HL-60
SNB-75 = system: SNB-75
NCI/ADR-RES = system: NCI/ADR-RES
SF-539 = system: SF-539
NCI-H460 = system: NCI-H460
SNB-19 = system: SNB-19
SK-OV-3 = system: SK-OV-3
PC-3 = system: PC-3
HCT-116 = system: HCT-116
Malme-3M = system: Malme-3M
SK-MEL-28 = system: SK-MEL-28
SW-620 = system: SW-620
SF-295 = system: SF-295
HOP-62 = system: HOP-62

Measured: GI50

OCc1cc2c([nH]c3ccccc32)c(C(O)CO)n1 (stereo not drawn)
inactive: UACC-257 > 100 µM | MDA-N > 100 µM | HL-60 > 100 µM | SNB-75 > 100 µM | NCI/ADR-RES > 100 µM | SF-539 > 100 µM | NCI-H460 > 100 µM | SNB-19 > 100 µM | SK-OV-3 > 100 µM | PC-3 > 100 µM | HCT-116 > 100 µM | Malme-3M > 100 µM | SK-MEL-28 > 100 µM | SW-620 > 100 µM | SF-295 > 100 µM

CCOC(=O)c1cc2c3ccn(Cc4ccccc4)c3c3c(C)noc3c2[nH]1
inactive: HOP-62 > 100 µM | UACC-257 > 100 µM | MDA-N > 100 µM | HL-60 > 100 µM | SNB-75 74.6 µM | NCI/ADR-RES > 100 µM | NCI-H460 > 100 µM | SNB-19 > 100 µM | PC-3 > 100 µM | HCT-116 > 100 µM | Malme-3M > 100 µM | SK-MEL-28 > 100 µM | SW-620 > 100 µM | SF-295 > 100 µM

C=CCOc1ccc(C(=N/NC(=O)c2ccccc2)/N=N/c2ccc(C)cc2)cc1OC
inactive: HOP-62 37.8 µM | UACC-257 19.6 µM | MDA-N 20.7 µM | HL-60 4.83 µM | SNB-75 20.2 µM | NCI/ADR-RES 35.7 µM | NCI-H460 18.4 µM | SNB-19 50 µM | PC-3 25.7 µM | HCT-116 19 µM | Malme-3M 21.1 µM | SK-MEL-28 20 µM | SW-620 31.4 µM | SF-295 32 µM

O=C(Nc1ccc(Cl)cc1)c1cc(S(=O)(=O)Nc2n[nH]c(=O)[nH]2)c(SSc2cc(Cl)c(C(=O)Nc3ccc(Cl)cc3)cc2S(=O)(=O)Nc2n[nH]c(=O)[nH]2)cc1Cl
inactive: HOP-62 > 100 µM | UACC-257 > 100 µM | MDA-N > 100 µM | HL-60 > 100 µM | SNB-75 88.1 µM | NCI/ADR-RES > 100 µM | NCI-H460 > 100 µM | SNB-19 > 100 µM | SK-OV-3 > 100 µM | PC-3 > 100 µM | HCT-116 > 100 µM | Malme-3M > 100 µM | SK-MEL-28 > 100 µM | SW-620 > 100 µM | SF-295 > 100 µM

COC(=O)C(=O)C(C(=O)C(=O)Nc1cccc(OC)c1)c1nc2ccc(Cl)cc2nc1O (stereo not drawn)
inactive: UACC-257 > 100 µM | MDA-N > 100 µM | HL-60 > 100 µM | SNB-75 > 100 µM | NCI/ADR-RES > 100 µM | SF-539 > 100 µM | NCI-H460 > 100 µM | SNB-19 > 100 µM | SK-OV-3 > 100 µM | PC-3 > 100 µM | HCT-116 > 100 µM | Malme-3M > 100 µM | SK-MEL-28 > 100 µM | SW-620 > 100 µM | SF-295 > 100 µM

CCCCCCCCCCCCCCCCOCC(Cl)CP(=O)(O)OP(=O)(O)OCC1OC(n2cnc3c(N)ncnc32)C(O)C1O (stereo not drawn)
inactive: HOP-62 > 100 µM | UACC-257 > 100 µM | MDA-N > 100 µM | HL-60 > 100 µM | SNB-75 > 100 µM | NCI/ADR-RES > 100 µM | SF-539 > 100 µM | NCI-H460 47.5 µM | SNB-19 60.3 µM | SK-OV-3 > 100 µM | PC-3 > 100 µM | HCT-116 67 µM | Malme-3M > 100 µM | SK-MEL-28 > 100 µM | SW-620 > 100 µM

CN(C)Cc1cc(C(=O)/C=C/c2ccc(Cl)cc2Cl)cc(CN(C)C)c1O
inactive: HOP-62 3.54 µM | UACC-257 5.11 µM | MDA-N 1.88 µM | HL-60 1.96 µM | SNB-75 2.95 µM | NCI/ADR-RES 1.75 µM | SF-539 4.4 µM | NCI-H460 1.46 µM | SNB-19 4.12 µM | PC-3 1.65 µM | HCT-116 3.07 µM | Malme-3M 8.85 µM | SK-MEL-28 6.25 µM | SW-620 2.81 µM | SF-295 3.34 µM
